Assay [1] relates to A549 cells. Nature of the assay: MTT antiproliferative assay, A549. Type of assay: cell-based, human. The settings on record: mean of n = 3. An excerpt: (§1) To evaluate the anti-NSCLC activity of compounds 1–5, we tested their inhibitory effect on the proliferation of two NSCLC cell lines (A549 and H1299) as well as human normal embryonic lung cell line MRC-5 by the MTT assay using Cis-platin (DDP) as a positive control. […] Among them, compounds 1–3 were further studied for their potential apoptosis-mediated death of A549 cells because of their promising antiproliferative activity against NSCLC cells.
(§2) Human lung carcinoma cell lines (A549), human lung adenocarinoma epithelial cell lines (H1299) and human normal embryonic lung cell lines (MRC-5) were purchased from the Chinese Academy of Sciences (Shanghai). H1299 and MRC-5 cells were maintained in RPMI1640 medium, and A549 cell lines were maintained in MEN medium. Both media were supplemented with 10% fetal bovine serum. All of the cell lines were grown at 37 °C in a 5% CO2 atmosphere. The cell lines mentioned above were checked for mycoplasma contamination, and no contamination was observed.
(§3) Cytotoxicity of test compounds was assessed by the MTT assay. A549, H1299 and MRC-5 cells at a final density (3000 cells/well) were placed in 96-well cell plates and treated with or without different concentrations of the test compounds for 24 h. At the end of the treatment, 3-(4,5-dimethyl-2-thiazolyl)-2,5-diphenyl-2-H-tetrazolium bromide (MTT, […], 5 mg/mL) was added into each well, and the cells were further incubated for 4 h. The resulting formazan crystals were dissolved in […] of DMSO and the absorbance was read spectrophotometrically at 570 nm using an enzyme-linked immunosorbent assay plate reader. Experiments were conducted in triplicate. Inhibition rate (%) = [(Acontrol − Atreated)/Acontrol] × 100%. IC50 value represents the half of maximal inhibitory concentration.
Background: Formazan colour is commonly taken as a measure of viable cells.

The test system of a further assay is H1299 cells. The experiment in a line: MTT antiproliferative assay, H1299. It counts as cell-based, human. Conditions: mean of n = 3.
From the text: as §1, §2, §3

A further assay deals with MRC-5 cells. The experiment in a line: MTT cytotoxicity assay, non-cancer MRC-5. Type of assay: cell-based. The settings on record: mean of n = 3, non-cancer cells.
From the text: as §1, §2, §3

The test system of assay [2] is A549 cells. The experiment in a line: FITC-Annexin V/PI apoptosis assay by flow cytometry. Type of assay: cell-based, human. The settings on record: 3 μM, 24 h. Here is the method:
Subsequently, to further verify the apoptosis induction potential of compounds 1–3, quantification of Annexin V-FITC/PI double positive cells was performed using flow cytometry analysis. A549 cells were incubated with indicated compounds, and the percentages of apoptotic A549 cells were determined by FITC-Annexin V and PI staining and flow cytometry.
Cells were incubated in six-well plates (1 × 10^5/well) and treated with vehicle control (i.e., 1% DMSO in buffer) or compounds 1–3 at 3 μM for 24 h, respectively. The collected cells were harvested, washed with PBS, and then stained with FITC-Annexin-V and PI. Apoptosis was determined with flow cytometry.

Assay [3] concerns A549 cells. Nature of the assay: Cell cycle analysis, PI staining and flow cytometry. It counts as cell-based, human. Conditions: 24 h. Here is the method:
In addition to apoptosis, the induction of cell cycle arrest is an important means to control the growth and development of cancer cells. To investigate whether 3 suppressed the cells’ growth by arresting the cell cycle, we performed the experiment where cell cycle distribution was analyzed with flow cytometry after staining the DNA with propidium iodide (PI).
A549 cells were treated with vehicle control (i.e., 1% DMSO in buffer) or compound 3 at indicated concentration for 24 h, respectively. The cells were harvested, washed, then fixed with 70% ethanol at −20 °C for 8 h, and incubated with PI/RNase staining buffer (BD Pharmingen) for 15 min at room temperature (25 °C). The DNA content in the different groups of cells was assessed with flow cytometry and analyzed by the software MODFIT.

The test system of the next assay is caspase-3. Nature of the assay: Western blot, caspase-3 level in A549 cells. Type of assay: cell-based, human. Conditions: 3 μM, 24 h, β-actin as control. The protocol: (§4) Furthermore, to elucidate the mechanism underlying the apoptosis-inducing activity of compounds 1–3, we examined their regulatory effect on the expression of caspase-3/cleaved-caspase-3, which are hallmarks of apoptosis.
(§5) A549 cells (1 × 10^5/well) were cultured in six-well plates overnight and treated in triplicate with vehicle DMSO (0.1%, v/v) alone, or with indicated compound at 3 μM for 24 h. The cells were harvested and lysed with cell lysis buffer containing protease and phosphatase inhibitor cocktails (Beyotime, Shanghai, China). The concentrations of protein were determined using a BCA protein assay kit (Beyotime, Shanghai, China) and equalized before loading. Samples were denatured and subjected to SDS-PAGE gels followed by transfer to PVDF membrane and probed with specific antibodies against cleaved caspase-3, caspase-3, survivin, XIAP, β-actin, and GAPDH (Abcam, Shanghai, China), and then incubated with the secondary antibodies diluted in TBST. Finally, the protein bands were detected with ECL Western Blotting Kit according to the manufacturer’s specifications. Eventually, films were obtained and the light density of the target bar was analyzed by Image J software.
A general note: A western blot detects proteins with antibodies after separation by electrophoresis.

The next assay relates to cleaved caspase-3. Nature of the assay: Western blot, cleaved caspase-3 level in A549 cells. It counts as cell-based, human. The settings on record: 3 μM, 24 h, β-actin as control. Here is the method:
as §4, §5

Another assay has as its system XIAP. The experiment in a line: Western blot, XIAP expression in A549 cells. Type of assay: cell-based, human. The settings on record: 3 μM, 24 h, GAPDH as control. Here is the method: (§6) The X-linked mammalian inhibitor of apoptosis protein (XIAP) and survivin, known as the inhibitor-of-apoptosis protein (IAP) members, play an important regulatory role in the caspase-dependent apoptosis. Therefore, the Western blot assay experiments were further performed to examine whether the inhibition of XIAP and survivin were involved in compounds 1–3 induced apoptosis.
as §5

In the next assay the test system is survivin. The experiment in a line: Western blot, survivin expression in A549 cells. It counts as cell-based, human. Conditions: 3 μM, 24 h, GAPDH as control. Here is the method: as §6, §5
[4] abbreviates: Homo sapiens, A549, 24 h treatment.
[5] abbreviates: Homo sapiens, NCI-H1299, 24 h treatment.
Where [6] appears, read: Homo sapiens, MRC5, 24 h treatment.

Some results are limits rather than exact numbers.

For orientation: IC50 means the concentration that gives 50% inhibition. A lower IC50 goes with greater potency. Regarding `O=C1C[C@@H](c2ccc(Oc3c(-c4ccc(O)cc4)oc4cc(O)cc(O)c4c3=O)cc2)Oc2cc(O)cc(O)c21` [Compound 1, (2″S)-2″,3″-dihydrodelicaflavone], the IC50 was 3.1 µM with A549 cells [1] (setting [4]), 7.3 µM with H1299 cells (setting [5]) and above 100 µM with MRC-5 cells (setting [6]). Moreover, the “apoptosis incidence in A549 cells” value in the assay on A549 cells [2] stood at 41.3%.

Take `Cc1c(O)cc2oc(-c3ccc(Oc4c(-c5ccc(O)cc5)oc5cc(O)cc(O)c5c4=O)cc3)cc(=O)c2c1O` [Compound 2, 6″-methyldelicaflavone]: the half-maximal inhibitory concentration (IC50) with A549 cells [1] (setting [4]) is 2.8 µM; in the assay on H1299 cells (setting [5]), 7.3 µM; in the assay with MRC-5 cells (setting [6]) it was above 100 µM. In addition, the “apoptosis incidence in A549 cells” value with A549 cells [2] came to 80.3%.

As to `COc1cc(O)c2c(=O)c(Oc3ccc(-c4cc(=O)c5c(O)cc(O)cc5o4)cc3)c(-c3ccc(O)cc3)oc2c1` [Compound 3, 7-O-methyldelicaflavone], the results for the IC50 in the assay with A549 cells [1] (setting [4]), with H1299 cells (setting [5]) and with MRC-5 cells (setting [6]) were 2.3 µM, 4 µM and above 100 µM, respectively. Also, in the assay on A549 cells [2], the “apoptosis incidence in A549 cells” value turned out to be 82.4%. Moreover, the “G0/G1-phase cells (gate C in Figure 9A)” value with A549 cells [3] (5 μM, control 60.8%) stood at 45.3%. Besides, the “cell cycle arrest, phase” value in the assay on A549 cells [3] is “S phase”. In addition, the “percentage of cells at the S phase” value in the assay with A549 cells [3] (control 10.6%, concentration not in the sentence (5 μM by Figure 9)) worked out at 24.8%. Besides, the “relative level of caspase-3” value in the assay with caspase-3 was “upregulation”. The “relative level of cleaved caspase-3” value in the assay with cleaved caspase-3 is “upregulation”. Moreover, the “level of XIAP expression” value in the assay on XIAP is “suppressed”. In the assay with survivin, the “level of survivin expression” value is “suppressed”.

`Cc1c(O)cc2c(c1O)C(=O)C[C@@H](c1ccc(Oc3c(-c4ccc(O)cc4)oc4cc(O)cc(O)c4c3=O)cc1)O2` [Compound 4, (2″S)-6″-methyl-2″,3″-dihydrodelicaflavone]: the values for the half-maximal inhibitory concentration (IC50) in the assay with A549 cells [1] (setting [4]), with H1299 cells (setting [5]) and in the assay with MRC-5 cells (setting [6]) were 3.1 µM, 6.8 µM and 58.2 µM, respectively.

Turning to `O=c1cc(-c2ccc(Oc3c(-c4ccc(O)cc4)oc4cc(O)cc(O)c4c3=O)cc2)oc2cc(O)cc(O)c12` [Compound 5, delicaflavone], the 50% inhibitory concentration (IC50) was found to be 7.9 µM in the assay with A549 cells [1] (setting [4]), 8.4 µM with H1299 cells (setting [5]) and 36.8 µM in the assay on MRC-5 cells (setting [6]).

As to `N.N.[Cl][Pt][Cl]` [DDP, Cis-platin, reference compound], the concentration for half-maximal inhibition (IC50) in the assay on A549 cells [1] (24 h treatment) turned out to be 13.3 µM; in the assay on H1299 cells (24 h treatment), 24.5 µM; with MRC-5 cells (24 h treatment), 49 µM. Also, in the assay on caspase-3, the “relative level of caspase-3” value was “enhanced”. Further, the “relative level of cleaved caspase-3” value in the assay with cleaved caspase-3 is recorded as “enhanced”.
